Test results taken from patent US10385108B2, “Peptide analogs of alpha-melanocyte stimulating hormone” (Genzyme Corporation, priority 2008, dated 2019).
Read-outs that look alike come from different tables or passages of the source. Where a SMILES comes first, the peptide text is derived from it. [ ]: non-standard residue; d: D form. dCha = N[C@H](CC1CCCCC1)C(=O)O

How the values were obtained:
[1] = test system: B16-F1 murine melanoma cells; experiment: Intracellular cAMP in B16-F1 melanoma cells; assay type: cell-based; conditions: for EC50: B16-F1 cells, 10^-4-10^-11 M, 30 min, IBMX
Experimental: B16-F1 (melanoma cell line) cells from American Type Culture Collection (Manassas, Va.) were seeded into flat bottom 96 well plates at 5×10^4/well and cultured overnight in DMEM (Cambrex, Walkersville, Md.) supplemented with 2 mM glutamine, antibiotics (100 U/ml penicillin and 100 […]) and 10% heat-inactivated fetal bovine serum (Invitrogen, Grand Island, N.Y.). […] Cells were lysed and intracellular cAMP levels were measured by an enzyme immunoassay kit (Amersham Biosciences, Piscataway, N.J.). Forskolin (Sigma, St. Louis, Mo.) at 100 μM served as positive controls.
cAMP levels in B16-F1 melanoma cells after treatment with native α-MSH, RI α-MSH, or a scrambled control peptide were examined. The […] melanoma cell line expresses a high number of MCR1 receptors (3000-4000 receptors/cell) compared with macrophages cell lines which express only 100-200 receptors/cell. Therefore we selected to examine the effect of the RI α-MSH treatment on the melanoma cell line. Murine melanoma B16-F1 cells were treated with native α-MSH, RI α-MSH, or control scrambled peptide at concentrations 1 pg/ml-1 μg/ml. After 30 min, cells were lysed and intracellular cAMP was measured by an enzyme immunoassay. […] However, a higher concentration of RI α-MSH (100 ng/ml) was necessary to increase cAMP compared with native α-MSH which increased cAMP at a 10 pg/ml concentration. This difference in concentration of peptide necessary to increase cAMP levels may be the result of the binding affinity to the MCR1 receptor.
Murine melanoma B16-F1 cells were treated with native α-MSH, RI α-MSH, scrambled peptide control, KPV, or alanine substituted peptides of RI α-MSH at 1 μg/ml (FIG. 7B). […] Peptides designated 810, 811, and 812 have alanine substitutions in the central core tetrapeptide sequence (D-Trp D-Arg D-Phe D-His region; AA 5-8) (variant disclosed in SEQ ID NO:2) proposed to be involved in native α-MSH binding to the melanocortin receptor and its biological activity. […] The residues in the core tetrapeptide (wrfh) (variant disclosed in SEQ ID NO:2) and to a lesser extent, the methionine 4 of RI-MSH are critical for binding to MC1R.
B16-F1 murine melanoma cells were cultured into 96 well plates 5×10^4 cells/well overnight in media with L-glutamine and pen/strep and FBS. Media was removed and new media with IBMX was added to the cells for 1 hr. Cells were then treated with RI α-MSH, or RI α-MSH peptide analogs (890, 891, 892, 893, 894 or 895). Cells were lysed after 30 min using a cAMP assay kit and supernatant were used in the assay. Forskolin at 10 μM served as positive controls.
Intracellular cAMP was measured using a cAMP competition Assay Kit (Amersham Biosciences). All cell lysate samples were diluted 1:100 for analysis.
Murine melanoma B16-F1 cells were treated with RI α-MSH, or RI α-MSH analogs (869, 872, 880, 878, 886 and 890-895) at a concentration range of 10^−4-10^−11 M. cAMP levels from cells treated with RI α-MSH, or RI α-MSH analogs. […] See FIG. 22 for graphical data and Table 2 for EC50 data.

MC3R = MC3R (Homo sapiens, UniProt P41968); experiment: Competitive binding with 125I-NDP-MSH, HEK293 membrane preparations, MC3R
Experimental: (§1) Binding analysis was done by Cerep laboratories (Paris, France) with coded samples.
(§2) The mixtures were filtered through 96-well GFC filters (Millipore, Billerica, Mass.), washed 3 times with binding buffer without BSA, dried and counted.
(§3) A competitive binding assay using a MCR panel including MCR 1, 3, 4, and 5 was performed.

MC1R [2] = target: T1, MC1R (Homo sapiens, UniProt Q01726); experiment: Competitive binding with 125I-NDP-MSH, HEK293 membrane preparations, MC1R; conditions: for Ki: Ki MC1R, competition with 125I-NDP-MSH;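 on all read-outs here: Read-out: receptor-bound radioligand retained by filtration and counted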
Experimental: as §1, §2, §3

MC4R = MC4R (Homo sapiens, UniProt P32245); experiment: Competitive binding with 125I-NDP-MSH, HEK293 membrane preparations, MC4R
Experimental: as §1, §2, §3

MC5R = MC5R (Homo sapiens, UniProt P33032); experiment: Competitive binding with 125I-NDP-MSH, HEK293 membrane preparations, MC5R; conditions: Ki MC5R, competition with 125I-NDP-MSH; cells noted in μM
Experimental: as §1, §2, §3

mouse MC1R = mouse MC1R (Mus musculus, UniProt Q01727); experiment: Binding affinity to mouse MC1R (data not shown)
C57BL/6 mice = experiment: LPS inflammation mouse model, serum cytokines; assay type: in vivo; conditions: i.p. 30 min after LPS, serum at 2 h
Experimental: Male C57BL/6 mice were challenged with LPS (1 ug/mouse), i.p. After 30 min mice were treated with dexamethasone (2 mg/kg; Sigma), RI-α-MSH analog 891, or RI-α-MSH. At 2 hrs after LPS challenge, mice were bled for serum. Cytokine analysis was measured by flow cytometry with a cytometric bead array kit (BD Biosciences).
C57BL/6 mice were injected with LPS, i.p. and 30 minutes later native α-MSH or RI α-MSH analog 891 was administered i.p. at doses ranging from 5 mg/kg to 0.156 mg/kg. RI α-MSH analog 891 is an analog of RI α-MSH in which d-Cha and hsiiss D-amino acids were added to the core peptide sequence. […] MCP-1 was not affected by native α-MSH treatment (FIG. 16B).

MC1R [3] = target: T1, MC1R; parameters: purchased Perkin Elmer, Boston Mass; host or cells: HEK293 transfected cell lines (membrane preparations); conditions: value quoted, not from Table 1; read-out: Ki MC1R (reported); cited from earlier work
[4] = peptides 5 to 0.156 mg/kg, dexamethasone 2 mg/kg

MC4R, sequence (P32245 whole entry): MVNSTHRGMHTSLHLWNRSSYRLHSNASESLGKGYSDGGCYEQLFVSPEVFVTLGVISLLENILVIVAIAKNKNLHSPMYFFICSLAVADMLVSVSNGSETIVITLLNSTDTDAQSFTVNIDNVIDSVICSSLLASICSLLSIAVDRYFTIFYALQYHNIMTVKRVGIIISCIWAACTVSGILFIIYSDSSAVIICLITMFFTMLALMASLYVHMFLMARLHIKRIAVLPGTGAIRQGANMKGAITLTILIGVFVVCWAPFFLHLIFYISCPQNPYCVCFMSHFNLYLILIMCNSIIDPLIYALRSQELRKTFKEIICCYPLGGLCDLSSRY
T1 sequence (Q01726 whole entry): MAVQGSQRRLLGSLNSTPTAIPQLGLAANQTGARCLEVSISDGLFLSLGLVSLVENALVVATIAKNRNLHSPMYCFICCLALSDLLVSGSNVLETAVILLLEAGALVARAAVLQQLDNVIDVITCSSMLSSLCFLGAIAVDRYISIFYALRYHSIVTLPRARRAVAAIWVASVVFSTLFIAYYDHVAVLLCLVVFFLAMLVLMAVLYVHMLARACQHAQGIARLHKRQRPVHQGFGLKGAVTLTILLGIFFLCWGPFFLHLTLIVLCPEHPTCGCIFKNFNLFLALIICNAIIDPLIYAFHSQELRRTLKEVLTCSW
MC5R, sequence (P33032 whole entry): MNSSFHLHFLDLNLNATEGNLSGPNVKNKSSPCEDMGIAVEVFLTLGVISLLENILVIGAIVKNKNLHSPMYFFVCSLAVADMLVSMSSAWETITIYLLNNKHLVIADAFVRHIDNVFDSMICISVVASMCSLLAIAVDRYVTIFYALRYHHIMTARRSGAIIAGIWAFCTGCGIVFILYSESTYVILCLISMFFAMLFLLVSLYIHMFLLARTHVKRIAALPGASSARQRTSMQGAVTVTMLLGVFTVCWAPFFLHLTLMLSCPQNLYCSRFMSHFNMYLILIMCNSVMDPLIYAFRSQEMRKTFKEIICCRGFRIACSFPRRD
MC3R, sequence (P41968 whole entry): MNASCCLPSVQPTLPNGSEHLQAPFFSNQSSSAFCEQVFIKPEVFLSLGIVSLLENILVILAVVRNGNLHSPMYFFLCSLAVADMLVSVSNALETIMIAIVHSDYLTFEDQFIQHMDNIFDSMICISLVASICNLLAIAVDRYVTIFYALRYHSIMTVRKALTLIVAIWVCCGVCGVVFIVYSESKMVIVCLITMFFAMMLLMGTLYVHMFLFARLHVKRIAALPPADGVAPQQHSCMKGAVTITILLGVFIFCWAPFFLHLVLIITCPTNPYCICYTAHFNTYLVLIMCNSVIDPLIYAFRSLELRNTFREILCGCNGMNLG
mouse MC1R, sequence (Q01727 whole entry): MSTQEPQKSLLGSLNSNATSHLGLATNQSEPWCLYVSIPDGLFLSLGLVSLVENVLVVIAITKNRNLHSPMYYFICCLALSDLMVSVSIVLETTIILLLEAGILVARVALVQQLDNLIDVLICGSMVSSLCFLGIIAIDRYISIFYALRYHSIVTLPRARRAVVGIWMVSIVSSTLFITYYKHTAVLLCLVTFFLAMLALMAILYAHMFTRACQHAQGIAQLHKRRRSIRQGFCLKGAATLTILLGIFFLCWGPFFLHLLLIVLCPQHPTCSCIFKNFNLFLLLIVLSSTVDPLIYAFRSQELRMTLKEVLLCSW

SMILES	EC50 [1]	Ki (MC3R)	Ki (MC1R [2])	Ki (MC4R)	Ki (MC5R)	binding affinity to mouse MC1R (in words) (mouse MC1R)	potency to stimulate cAMP (in words) ([1]; data not shown)	serum IL-10 vs vehicle (in words) (C57BL/6 mice; 5 to 0.156 mg/kg)	serum MCP-1 vs vehicle (in words) (C57BL/6 mice; [4])	serum TNF-α vs vehicle (in words) (C57BL/6 mice; [4])	affinity for MC1R compared with parent peptide (in words) (MC1R [2])	Ki (MC1R [3])
CC[C@@H](C)[C@@H](NC(=O)[C@@H](CO)NC(=O)[C@@H](Cc1c[nH]cn1)NC(=O)[C@@H](Cc1ccccc1)NC(=O)[C@@H](CCCNC(=N)N)NC(=O)[C@@H](Cc1c[nH]c2ccccc12)NC(=O)CNC(=O)[C@@H](CCCCN)NC(=O)[C@H]1CCCN1C(=O)[C@H](NC(C)=O)C(C)C)C(=O)N[C@@H](C(=O)N[C@H](CO)C(=O)N[C@H](CO)C(N)=O)[C@H](C)CC [compound 886, vpkgwrfhsiiss] (Ac-[dV][dP][dK]G[dW][dR][dF][dH][dS][dI][dI][dS][dS]-NH2)	0.002 µM	~19 µM	0.001 µM	~10 µM	~20 µM	–	–	–	–	–	–	–
CC[C@@H](C)[C@@H](NC(=O)[C@@H](CO)NC(=O)[C@@H](Cc1c[nH]cn1)NC(=O)[C@H](Cc1ccccc1)NC(=O)[C@@H](CCCNC(=N)N)NC(=O)[C@@H](Cc1c[nH]c2ccccc12)NC(=O)CNC(=O)[C@@H](CCCCN)NC(=O)[C@H]1CCCN1C(=O)[C@H](NC(C)=O)C(C)C)C(=O)N[C@@H](C(=O)N[C@H](CO)C(=O)N[C@H](CO)C(N)=O)[C@H](C)CC [compound 880, vpkGwrFhsiiss] (Ac-[dV][dP][dK]G[dW][dR]F[dH][dS][dI][dI][dS][dS]-NH2)	0.023 µM	~18 µM	0.0018 ± 0.0035 µM	~10 µM	> 30 µM	–	–	–	–	–	–	–
CSCC[C@@H](NC(=O)[C@@H](CCC(=O)O)NC(=O)[C@@H](Cc1c[nH]cn1)NC(=O)[C@@H](CC1CCCCC1)NC(=O)[C@@H](CCCNC(=N)N)NC(=O)[C@@H](Cc1c[nH]c2ccccc12)NC(=O)CNC(=O)[C@@H](CCCCN)NC(=O)[C@H]1CCCN1C(=O)[C@H](NC(C)=O)C(C)C)C(=O)N[C@H](CO)C(=O)N[C@H](Cc1ccc(O)cc1)C(=O)N[C@H](CO)C(N)=O [compound 869, vpkGwr(D-Cha)hemsys]	0.014 µM	> 30 µM	0.0022 µM	> 10 µM	~25 µM	–	–	–	–	–	–	–
CCCCSCC[C@@H](NC(=O)[C@@H](CCC(=O)O)NC(=O)[C@@H](Cc1c[nH]cn1)NC(=O)[C@@H](Cc1ccccc1)NC(=O)[C@@H](CCCNC(=N)N)NC(=O)[C@@H](Cc1c[nH]c2ccccc12)NC(=O)CNC(=O)[C@@H](CCCCN)NC(=O)[C@H]1CCCN1C(=O)[C@H](NC(C)=O)C(C)C)C(=O)N[C@H](CO)C(=O)N[C@H](Cc1ccc(O)cc1)C(=O)N[C@H](CO)C(N)=O [compound 878, vpkGwrfhe(D-buthionine)sys]	–	~40 µM	0.0023 µM	> 30 µM	~30 µM	–	–	–	–	–	–	–
CC[C@@H](C)[C@@H](NC(=O)[C@@H](CO)NC(=O)[C@@H](Cc1c[nH]cn1)NC(=O)[C@@H](CC1CCCCC1)NC(=O)[C@@H](CCCNC(=N)N)NC(=O)[C@@H](Cc1c[nH]c2ccccc12)NC(=O)CNC(=O)[C@@H](CCCCN)NC(=O)[C@H]1CCCN1C(=O)[C@H](NC(C)=O)C(C)C)C(=O)N[C@@H](C(=O)N[C@H](CO)C(=O)N[C@H](CO)C(N)=O)[C@H](C)CC [compound 891, vpkGwr(D-Cha)hsiiss] (Ac-[dV][dP][dK]G[dW][dR][dCha][dH][dS][dI][dI][dS][dS]-NH2)	0.081 µM	~8 µM	0.00043 ± 1e-05 µM	~3.2 µM	~2.5 µM	increased binding affinity	increased potency to stimulate cAMP	significant decrease	no affect	significant decrease	indistinguishable from MSH	–
NC(=O)[C@H](Cc1c[nH]c2ccccc12)NC(=O)[C@H](CCCN=C(N)N)NC(=O)[C@@H](Cc1ccccc1)NC(=O)[C@H](Cc1cnc[nH]1)NC(=O)CCCc1ccccc1 [compound 819, (Ph(CH2)3CO) HfRW]	–	–	–	–	–	–	–	–	–	–	–	6 pM
